Test results reported in PubChem BioAssay (NCI).
Several values for one entry are separate records, joined by “and”; a condition that tells them apart may be missing. Identical values can stand only once.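 Interpolation was linear, between the two tested concentrations surrounding the appropriate level; five concentrations were tested over 48 hours in 96-well plates. Here, GI50 denotes the concentration required for 50% inhibition of growth. The concentration for full growth arrest is given as TGI.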

How the values were obtained:
Experiment in all cases: NCI anticancer screen, dose series, 48 h
[1] = tested on: KM12 colon
[2] = tested on: SK-OV-3 ovarian
[3] = tested on: NCI-H522 lung
[4] = tested on: IGROV1 ovarian
[5] = tested on: MOLT-4 leukemia
[6] = tested on: UO-31 renal
[7] = tested on: SK-MEL-2 melanoma
[8] = tested on: HOP-62 NSCLC

Row | SMILES | TGI [1] | TGI [2] | TGI [3] | TGI [4] | TGI [5] | TGI [6] | TGI [7] | GI50 [1] | GI50 [2] | GI50 [3] | GI50 [4] | GI50 [5] | GI50 [8] | TGI [8] | GI50 [6] | GI50 [7]
1 | COc1cc(OCc2ccccc2)c2c(CCC(=O)O)cc(=O)oc2c1 (tested in a mixture with another compound) | > 100 µM | > 100 µM | > 100 µM | > 100 µM | 90.4 µM | > 100 µM | > 100 µM |  |  |  |  |  |  |  |  | 
2 | Cn1ncc(C#N)c1-c1ccc2c(c1)CN([C@H](CN)Cc1cccc(F)c1)C2=O | > 100 µM | 13.2 µM | 60.3 µM | 1.59 µM | 27.4 µM | 42.5 µM | 44.8 µM | 0.711 µM | 0.255 µM | 17.6 µM | 0.0489 µM | 0.413 µM | 23.6 µM | > 100 µM | 3.43 µM | 16.6 µM
3 | O=S(=O)(NC1=NCCN1C(=S)SN1CCn2c1nsc2=S)c1ccc(Oc2ccccc2)cc1 | > 100 µM | > 100 µM | 69 µM | > 100 µM |  | > 100 µM | 75.5 µM | 39.7 µM | > 100 µM | 26.2 µM | 31.8 µM |  | > 100 µM | > 100 µM | > 100 µM | 29.3 µM
4 | NC(=O)c1c(NC(=O)c2cccs2)sc2c1CCC(=O)C2 | 9.52 µM |  | 7.92 µM | 36.7 µM | 16.1 µM | 10.1 µM | 7.78 µM | 2.18 µM |  | 0.892 µM | 1.98 µM | 2.28 µM | 3.65 µM | > 100 µM | 1.58 µM | 2.71 µM
5 | COc1ccc(OC)c(Nc2nc3nonc3nc2Nc2cccc(Br)c2)c1 | > 100 µM | 4.1 µM | 0.775 µM | 42.5 µM | 12.1 µM | 53.7 µM | 3.84 µM | 1.24 µM | 0.486 µM | 0.254 µM | 2.87 µM | 0.809 µM | 1.62 µM | 7.43 µM | 0.622 µM | 0.509 µM
6 | CC[C@@H](C)/C=C(C)/C=C/C(=O)c1c(O)c(-c2ccc(OC(=O)[C@@]34CC[C@@](C)(C(=O)O3)C4(C)C)cc2)cn(O)c1=O | > 50 µM | > 50 µM | > 50 µM | 41.4 µM | > 50 µM | 7.89 µM | > 50 µM | 3.85 µM | 7.48 µM | 1.73 µM | 1.72 µM | 1.04 µM | 2.05 µM | > 50 µM | 1.32 µM | 15.6 µM
7 | C/C(=N\NC(=O)c1ccncc1)c1sc(-n2nc(-c3ccccc3)cc2-c2ccccc2)nc1C | > 100 µM | > 31.6 µM | > 80.5 µM | > 100 µM | > 31.6 µM | > 31.6 µM | > 31.6 µM |  |  |  |  |  |  | > 31.6 µM |  | 
8 | COc1cccc2c1C(=O)c1c(O)c3c(c(O)c1C2=O)C[C@@](O)(/C(CO)=N/NC(=O)CCCCCN1C(=O)C=CC1=O)C[C@@H]3O[C@H]1C[C@H](N)[C@H](O)[C@H](C)O1 | > 100 µM | 36.8 µM | 4.21 µM | > 100 µM | 28.3 µM | 27.9 µM | 5.33 µM | 1.98 µM | 1.63 µM | 0.56 µM | 1.04 µM | 0.392 µM | 0.674 µM | 10.5 µM | 3.47 µM | 1.68 µM
9 | CCN1CCN(c2nc(C)cc(NCc3cc(Nc4ccnc5cc(Cl)ccc45)ccc3F)n2)CC1 | 10.5 µM | 15 µM | 7.77 µM | 7.27 µM | 16.6 µM | 2.99 µM | 4.1 µM | 2.95 µM | 4.14 µM | 3.02 µM | 2.2 µM | 2.44 µM | 1.58 µM | 4.57 µM | 1.31 µM | 2.12 µM
10 | C[C@]12CC[C@H](O[C@@H]3O[C@H](CO[C@@H]4O[C@H](CO)[C@@H](O)[C@H](O)[C@H]4O)[C@@H](O)[C@H](O)[C@H]3O)C[C@@H]1CC[C@@H]1[C@@H]2CC[C@]2(C)[C@@H](C3=CC(=O)OC3)CC[C@]12O | > 100 µM | > 72.6 µM | 46.7 µM | 56.3 µM | > 41 µM | > 66.5 µM | > 94 µM |  |  |  |  |  |  | 31.1 µM |  | 
11 | Cc1cc(O)ccc1C1=NN(c2ccc(S(N)(=O)=O)cc2)C(=O)CC1 | 50 µM and > 100 µM | 50 µM and > 100 µM | 33.5 µM and > 100 µM | 50 µM and > 100 µM | 50 µM and > 100 µM | 50 µM and > 100 µM | 50 µM and 77.7 µM | 2.89 µM and 6.49 µM | 10.8 µM and 51.7 µM | 1.12 µM and 2.48 µM | 6.75 µM and 9.07 µM | 2.67 µM and 6.09 µM | 12.8 µM and 25 µM | 46 µM and 86.9 µM | 18.1 µM and 35.1 µM | 16.8 µM and 10.4 µM
12 | CC(=Nc1ccc(N(C)C)cc1)c1ccccc1 | > 100 µM | > 100 µM | 40.8 µM | 75.3 µM | 72.1 µM | 40.7 µM | 29.4 µM |  |  |  |  |  |  | > 100 µM |  | 
